The results in this text go back to US20260193239A1, “NOVEL COMPOUNDS” (Hoffmann-La Roche Inc., priority 2023, published 2026).

One data set concerns the target T1, P-gp (Homo sapiens, UniProt P08183).
T1 construct: expressed in transfected cells; host or cells: LLC-PK1 cells (porcine kidney epithelial cells)
Kind of data set: Transcellular P-gp assay. It counts as in vitro ADME. Conditions: LLC-PK1 cells over-expressing human P-gp; for Papp: read-out: Permeation. An excerpt:
The general assay uses transfected LLC-PK1 cells (porcine kidney epithelial cells) over-expressing human or mouse P-gp, cultured on 96 well semi-permeable filter membrane plates, where they form a polarized monolayer with tight junctions, and act as a barrier between the apical and basolateral compartment.
P-gp is expressed in the apical-facing membrane of the monolayer.
The tightness of the cell monolayer and functional activity of P-gp are confirmed by addition of a cell-impermeable marker, Lucifer yellow, and a reference P-gp substrate, edoxaban, respectively.

In data set [1] the target is T2, NLRP3 (Homo sapiens, UniProt Q96P20). Kind of data set: THP-1 cells pyroptosis assay. It counts as cell-based. On the set-up: Seed THP-1 cells (25,000 cells/well) containing 1.0 μg/ml LPS; host or cells: THP-1 cells, LPS-primed and nigericin-stimulated. Conditions: 1 μg/ml LPS, nigericin 5 μM, resazurin readout. On the procedure:
The cells were routinely passaged and grown to confluency (~10^6 cells/ml). On the day of the experiment, THP-1 cells were harvested and resuspended into RPMI medium (without FBS). […] To this diluted cell solution was added LPS (Sigma #L4524) to give a 1 μg/ml Final Assay Concentration (FAC). 40 μl of the final preparation was aliquoted into each well of a 96-well plate. The plate thus prepared was used for compound screening.
(The colour change of resazurin is a common sign of viable cells or microbes.)

The target in data set [2] is T2, NLRP3. Kind of data set: Human whole blood IL-1β release assay. Conditions: 1 μg/ml LPS, nigericin 10 μM, IL-1β by AlphaLisa. On the set-up: Human whole blood in Li-heparin tubes was obtained from healthy donors; from tissue; host or cells: human whole blood from healthy donors, LPS-primed and nigericin-stimulated. It counts as cell-based. An excerpt:
For systemic delivery, the ability to inhibit NLRP3 when the compounds are present within the bloodstream is of great importance. For this reason, the NLRP3 inhibitory activity of a number of compounds in human whole blood was investigated in accordance with the following protocol.
Human whole blood in Li-heparin tubes was obtained from healthy donors from a volunteer donor panel.

Molecules are shown by their SMILES. pIC50: −log10 of the molar value.

T2 sequence (Q96P20 whole entry): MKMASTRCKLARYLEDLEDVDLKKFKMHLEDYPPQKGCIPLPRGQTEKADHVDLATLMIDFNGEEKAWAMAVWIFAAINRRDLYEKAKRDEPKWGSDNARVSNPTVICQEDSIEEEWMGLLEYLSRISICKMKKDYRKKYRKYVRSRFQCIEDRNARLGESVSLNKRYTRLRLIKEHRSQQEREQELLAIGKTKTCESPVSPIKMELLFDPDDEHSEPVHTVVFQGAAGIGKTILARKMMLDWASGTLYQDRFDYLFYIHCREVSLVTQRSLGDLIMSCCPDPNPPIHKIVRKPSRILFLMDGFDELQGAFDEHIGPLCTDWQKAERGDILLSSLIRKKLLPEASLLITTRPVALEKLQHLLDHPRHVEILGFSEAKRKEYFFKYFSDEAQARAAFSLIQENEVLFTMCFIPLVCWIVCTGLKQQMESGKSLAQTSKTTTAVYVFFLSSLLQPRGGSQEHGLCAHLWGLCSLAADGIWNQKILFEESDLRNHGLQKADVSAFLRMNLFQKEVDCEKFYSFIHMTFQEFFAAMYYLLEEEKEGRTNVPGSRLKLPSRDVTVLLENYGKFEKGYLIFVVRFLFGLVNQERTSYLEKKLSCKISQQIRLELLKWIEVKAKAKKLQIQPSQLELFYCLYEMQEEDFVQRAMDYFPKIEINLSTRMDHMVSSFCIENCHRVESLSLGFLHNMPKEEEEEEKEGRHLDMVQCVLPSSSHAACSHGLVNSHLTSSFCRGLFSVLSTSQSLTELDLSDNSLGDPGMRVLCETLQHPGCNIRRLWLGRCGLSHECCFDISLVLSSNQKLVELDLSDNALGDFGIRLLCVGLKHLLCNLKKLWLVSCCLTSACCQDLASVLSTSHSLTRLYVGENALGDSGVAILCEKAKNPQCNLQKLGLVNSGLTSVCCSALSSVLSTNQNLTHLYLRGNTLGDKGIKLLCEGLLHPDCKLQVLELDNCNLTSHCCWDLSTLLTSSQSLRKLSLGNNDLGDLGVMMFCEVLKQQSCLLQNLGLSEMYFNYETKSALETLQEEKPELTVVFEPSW
T1 sequence (P08183 whole entry): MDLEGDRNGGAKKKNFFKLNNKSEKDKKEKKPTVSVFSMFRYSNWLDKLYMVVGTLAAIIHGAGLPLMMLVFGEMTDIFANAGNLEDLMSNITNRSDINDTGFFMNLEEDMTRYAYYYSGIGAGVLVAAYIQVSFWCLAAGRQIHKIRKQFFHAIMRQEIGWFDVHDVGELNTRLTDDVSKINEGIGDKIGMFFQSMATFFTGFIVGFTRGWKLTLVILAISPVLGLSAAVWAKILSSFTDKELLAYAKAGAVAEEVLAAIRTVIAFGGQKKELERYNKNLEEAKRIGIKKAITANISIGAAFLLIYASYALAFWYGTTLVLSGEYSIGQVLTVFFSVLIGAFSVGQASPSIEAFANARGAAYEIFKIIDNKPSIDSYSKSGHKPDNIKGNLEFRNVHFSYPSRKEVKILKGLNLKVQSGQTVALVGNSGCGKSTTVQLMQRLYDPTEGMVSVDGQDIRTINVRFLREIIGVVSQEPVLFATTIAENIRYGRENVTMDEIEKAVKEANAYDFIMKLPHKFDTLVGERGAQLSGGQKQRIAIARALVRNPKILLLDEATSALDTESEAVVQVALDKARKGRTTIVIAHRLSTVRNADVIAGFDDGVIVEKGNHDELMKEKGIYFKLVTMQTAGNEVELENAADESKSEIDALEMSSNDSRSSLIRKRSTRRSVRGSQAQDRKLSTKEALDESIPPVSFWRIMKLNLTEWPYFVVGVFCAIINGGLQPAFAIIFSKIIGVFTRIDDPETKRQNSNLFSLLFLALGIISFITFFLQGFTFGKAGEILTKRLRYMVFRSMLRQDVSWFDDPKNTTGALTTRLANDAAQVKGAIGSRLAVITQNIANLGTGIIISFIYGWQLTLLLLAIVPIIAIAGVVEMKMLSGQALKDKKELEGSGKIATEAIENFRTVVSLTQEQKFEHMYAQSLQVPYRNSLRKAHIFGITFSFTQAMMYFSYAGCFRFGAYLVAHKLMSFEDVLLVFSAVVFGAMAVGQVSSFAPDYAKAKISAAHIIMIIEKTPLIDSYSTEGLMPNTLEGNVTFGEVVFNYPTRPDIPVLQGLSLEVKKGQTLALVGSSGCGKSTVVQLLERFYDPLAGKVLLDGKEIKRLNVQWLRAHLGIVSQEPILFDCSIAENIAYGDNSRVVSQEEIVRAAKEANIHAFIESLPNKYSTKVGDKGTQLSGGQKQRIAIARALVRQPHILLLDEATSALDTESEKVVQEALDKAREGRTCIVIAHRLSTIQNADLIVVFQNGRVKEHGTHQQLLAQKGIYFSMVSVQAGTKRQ

With `CCN1CCC[C@@H](Nc2nnc(-c3c(C)cc4c(c3O)CCO4)n(CC)c2=O)C1` (atropisomer, axis not shown) [Example 2b, P-4-ethyl-6-[[(3R)-1-ethyl-3-piperidyl]amino]-3-(4-hydroxy-6-methyl-2,3-dihydrobenzofuran-5-yl)-1,2,4-triazin-5-one], at P-gp, the efflux ratio worked out at 8 and the Papp is 3.7 ×10⁻⁶ cm/s.
For `CCN1CCC[C@@H](Nc2nnc(-c3c(CO)cc4c(c3O)CCO4)n(C)c2=O)C1` (atropisomer, axis not shown) [Example 5, 3-[4-Hydroxy-6-(hydroxymethyl)-2,3-dihydrobenzofuran-5-yl]-4-methyl-6-[[(3R)-1-ethyl-3-piperidyl]amino]-1,2,4-triazin-5-one], the pIC50 on NLRP3 [1] was 6.86.
For `CCN1CCC[C@@H](Nc2nnc(-c3c(CO)cc4c(c3O)CCO4)n(C)c2=O)C1` (atropisomer, axis not shown) [Example 5a, (M or P)-3-[4-Hydroxy-6-(hydroxymethyl)-2,3-dihydrobenzofuran-5-yl]-4-methyl-6-[[(3R)-1-ethyl-3-piperidyl]amino]-1,2,4-triazin-5-one], the negative logarithm of the IC50 (pIC50) was 7.08 on NLRP3 [1] and 6.99 on NLRP3 [2].
Turning to `CCc1cc2c(c(O)c1-c1nnc(N[C@@H]3CCCN(CCO)C3)c(=O)n1C)CCO2` (atropisomer, axis not shown) [Example 8b, P-3-(6-ethyl-4-hydroxy-2,3-dihydrobenzofuran-5-yl)-6-[[(3R)-1-(2-hydroxyethyl)-3-piperidyl]amino]-4-methyl-1,2,4-triazin-5-one], at P-gp, the efflux ratio came out at 1 and the Papp stood at 0.9 ×10⁻⁶ cm/s. The same compound gave a pIC50 against NLRP3 [1] of 7.80. The pIC50 at NLRP3 [2] was 7.19.
The corresponding values for `CCn1c(-c2c(C)cc3c(c2O)CCO3)nnc(N[C@@H]2CCCN(CCO)C2)c1=O` (atropisomer, axis not shown) [Example 9b, (P or M)-4-ethyl-6-[[(3R)-1-(2-hydroxyethyl)-3-piperidyl]amino]-3-(4-hydroxy-6-methyl-2,3-dihydrobenzofuran-5-yl)-1,2,4-triazin-5-one] are 2, 0.8 ×10⁻⁶ cm/s, 6.93 and 6.69.
On to `CCN1CCC[C@@H](Nc2nnc(-c3c(C)cc(C(F)(F)F)cc3O)n(C)c2=O)C1` (atropisomer, axis not shown) [Reference Example RE-B, 6-[[(3R)-1-Ethyl-3-piperidyl]amino]-3-[2-hydroxy-6-methyl-4-(trifluoromethyl)phenyl]-4-methyl-1,2,4-triazin-5-one, reference compound], for which, on P-gp, the efflux ratio came out at 7.6 and the Papp stood at 5.6 ×10⁻⁶ cm/s.
Consider `CCc1cc2c(c(O)c1-c1nnc(N[C@@H]3CCCN(CC)C3)c(=O)n1C)CCO2` (single isomer, unassigned) [Example 1b], for which, at P-gp, the efflux ratio is 11 and the Papp amounted to 4.5 ×10⁻⁶ cm/s.
`CCN1CCC[C@@H](Nc2nnc(-c3c(C)cc4c(c3O)CCO4)n(C)c2=O)C1` (single isomer, unassigned) [Example 3b]: at P-gp, the efflux ratio was 10 and the Papp worked out at 5.3 ×10⁻⁶ cm/s.
Take `CCN1CCC[C@@H](Nc2nnc(-c3c(CO)cc4c(c3O)CCO4)n(C)c2=O)C1` (single isomer, unassigned) [Example 5b, (P or M)-3-[4-Hydroxy-6-(hydroxymethyl)-2,3-dihydrobenzofuran-5-yl]-4-methyl-6-[[(3R)-1-ethyl-3-piperidyl]amino]-1,2,4-triazin-5-one]: at NLRP3 [1], the pIC50 was 6.02.
Take `CCN1CCC[C@@H](Nc2nnc(-c3c(COC)cc4c(c3O)CCO4)n(C)c2=O)C1` (single isomer, unassigned) [Example 6a, (M or P)-3-[4-Hydroxy-6-(methoxymethyl)-2,3-dihydrobenzofuran-5-yl]-4-methyl-6-[[(3R)-1-ethyl-3-piperidyl]amino]-1,2,4-triazin-5-one]: at NLRP3 [1], the pIC50 is < 6.00.
`CCN1CCC[C@@H](Nc2nnc(-c3c(COC)cc4c(c3O)CCO4)n(C)c2=O)C1` (single isomer, unassigned) [Example 6b]: on P-gp, the efflux ratio amounted to 1 and the Papp amounted to 1.1 ×10⁻⁶ cm/s. Moreover, the pIC50 at NLRP3 [1] is 7.82. This compound also showed a pIC50 against NLRP3 [2] of 7.54.
Regarding `CCN1CCCC(Nc2nnc(-c3c(COC)cc4c(c3O)CCC4)n(C)c2=O)C1` [Example 7b, P-6-[[(3R)-1-ethyl-3-piperidyl]amino]-3-[4-hydroxy-6-(methoxymethyl)indan-5-yl]-4-methyl-1,2,4-triazin-5-one], at P-gp, the efflux ratio turned out to be 12 and the Papp was determined as 5.1 ×10⁻⁶ cm/s.
In the case of `CCN1CCC[C@@H](Nc2nnc(-c3ccc4c(c3O)CCO4)n(C)c2=O)C1` [Reference Example RE-A, 6-[[(3R)-1-Ethyl-3-piperidyl]amino]-3-(4-hydroxy-2,3-dihydrobenzofuran-5-yl)-4-methyl-1,2,4-triazin-5-one, reference compound], at P-gp, the Permeation came to 24.9 ×10⁻⁶ cm/s.

The term efflux ratio denotes the permeability from basolateral to apical divided by that in the opposite direction, in the common usage. As a reminder, the pIC50 is the IC50 on a negative log10 scale, so that one unit is a factor of ten.
